According to article PMC10997755, “Discovery of a small-molecule inhibitor that traps Polθ on DNA and synergizes with PARP inhibitors” (Nature Communications, 2024):
Values joined by “and” are separate entries in the source; they are usually repeats but may differ in a detail not shown here. Equal entries are not always repeated.

Tests used:
Brca1-WT MEFs = assay: Clonogenic assay; assay type: cell-based, mouse; details: for pooled Average (normalized) / Normalized: MEF WT; for pooled Average (normalized): pooled average of 3 experiments; for Normalized: single experiments 1-3, 0 micro M = 100; for survival relative to 0 uM / survival relative to 0 uM, mean of the four experiments: WT; for survival relative to 0 uM: experiments 2023-04-07 and 2023-04-13; for survival relative to 0 uM, mean of the four experiments: last block without head (mean of 4)
Method: (§1) Cells were plated on six or twelve or twenty-four well plates. In six well plate, 1000 cells/ well of BRCA2 -/-, BRCA1 -/-, PALB2 mut and 500 cells/ well of wildtype pair was plated; In twelve well plate, 600 cells/ well of BRCA2 -/-, BRCA1 -/-, PALB2 mut and 400 cells/ well of wildtype pair was plated; In twenty-four well plate, 500 cells/ well of BRCA2 -/-, BRCA1 -/-, PALB2 mut and 300 cells/ well of wildtype pair was plated. […] The medium was replaced every 2 days until the colonies were ready for staining in 10–12 days. For staining: Medium was removed from plates, and cells were rinsed with PBS. Fixation was carried out with—Water: Ethanol: Acetic acid (5:4:1) for 30 min followed by staining of colonies with 0.5% crystal violet in Water: Ethanol (3:2) for 2 h at room temperature. The plates were rinsed with water and left for drying overnight at room temperature. Colonies were then counted and IC50 was calculated using results from 3 or more independent experiments. Response curves are shown as mean colony formation +/- S.E.M.

Brca1^CC/CC MEFs = assay: Clonogenic assay; assay type: cell-based, mouse; details: for pooled Average (normalized) / Normalized: MEF CC; for pooled Average (normalized): pooled average of 3 experiments; for Normalized: single experiments 1-3, 0 micro M = 100; for survival relative to 0 uM / survival relative to 0 uM, mean of the four experiments: cc; for survival relative to 0 uM: 150 cells/well, experiments 2023-04-07 and 2023-04-13; for survival relative to 0 uM, mean of the four experiments: last block without head (mean of 4)
Method: as §1

SMILES: CN(C(=O)Oc1c(N2CCN(CCO)C2=O)cc(C(F)(F)F)cc1C(F)(F)F)c1ccc(F)cc1 [RTx-161]
- pooled Average (normalized) (Brca1-WT MEFs; RTX-161 2.5 micro M): 86.6767
- Normalized (Brca1-WT MEFs; RTX-161 2.5 micro M): 94.0299 and 78.7879 and 87.2314
- pooled Average (normalized) (Brca1-WT MEFs; RTX-161 5 micro M): 84.2267
- Normalized (Brca1-WT MEFs; RTX-161 5 micro M): 88.0597 and 81.8182 and 82.8237
- pooled Average (normalized) (Brca1-WT MEFs; RTX-161 10 micro M): 87.7867
- Normalized (Brca1-WT MEFs; RTX-161 10 micro M): 100 and 72.7273 and 90.6469
- pooled Average (normalized) (Brca1-WT MEFs; RTX-161 20 micro M): 78.36
- Normalized (Brca1-WT MEFs; RTX-161 20 micro M): 65.6716 and 68.1818 and 101.237
- survival relative to 0 uM (Brca1-WT MEFs; 150 cells/well, RTx-161 1.25 uM): 95.92% and 83.78%
- survival relative to 0 uM (Brca1-WT MEFs; 150 cells/well, RTx-161 2.5 uM): 108.16% and 89.19%
- survival relative to 0 uM (Brca1-WT MEFs; 150 cells/well, RTx-161 5 uM): 104.08% and 81.08%
- survival relative to 0 uM (Brca1-WT MEFs; 150 cells/well, RTx-161 10 uM): 102.04% and 78.38%
- survival relative to 0 uM (Brca1-WT MEFs; 150 cells/well, RTx-161 20 uM): 87.76% and 86.49%
- survival relative to 0 uM (Brca1-WT MEFs; 300 cells/well, RTx-161 1.25 uM): 109.62% and 92.19%
- survival relative to 0 uM (Brca1-WT MEFs; 300 cells/well, RTx-161 2.5 uM): 88.46% and 93.75%
- survival relative to 0 uM (Brca1-WT MEFs; 300 cells/well, RTx-161 5 uM): 92.31% and 106.25%
- survival relative to 0 uM (Brca1-WT MEFs; 300 cells/well, RTx-161 10 uM): 96.15% and 100.00%
- survival relative to 0 uM (Brca1-WT MEFs; 300 cells/well, RTx-161 20 uM): 103.85% and 96.88%
- survival relative to 0 uM, mean of the four experiments (Brca1-WT MEFs; RTx-161 1.25 uM): 95.38%
- survival relative to 0 uM, mean of the four experiments (Brca1-WT MEFs; RTx-161 2.5 uM): 94.89%
- survival relative to 0 uM, mean of the four experiments (Brca1-WT MEFs; RTx-161 5 uM): 95.93%
- survival relative to 0 uM, mean of the four experiments (Brca1-WT MEFs; RTx-161 10 uM): 94.14%
- survival relative to 0 uM, mean of the four experiments (Brca1-WT MEFs; RTx-161 20 uM): 93.74%
- pooled Average (normalized) (Brca1^CC/CC MEFs; RTX-161 2.5 micro M): 50.51
- Normalized (Brca1^CC/CC MEFs; RTX-161 2.5 micro M): 61.5322 and 50 and 40
- Normalized (Brca1^CC/CC MEFs; RTX-161 5 micro M): 48.9756 and 28.3333 and 33.3333
- pooled Average (normalized) (Brca1^CC/CC MEFs; RTX-161 10 micro M): 33.4
- pooled Average (normalized) (Brca1^CC/CC MEFs; RTX-161 20 micro M): 18.83
- survival relative to 0 uM (Brca1^CC/CC MEFs; RTx-161 1.25 uM): 84.85% and 90.38%
- survival relative to 0 uM (Brca1^CC/CC MEFs; RTx-161 2.5 uM): 72.73% and 53.85%
- survival relative to 0 uM (Brca1^CC/CC MEFs; RTx-161 5 uM): 60.61% and 50.00%
- survival relative to 0 uM (Brca1^CC/CC MEFs; RTx-161 10 uM): 51.52% and 57.69%
- survival relative to 0 uM (Brca1^CC/CC MEFs; RTx-161 20 uM): 39.39% and 48.08%
- survival relative to 0 uM, mean of the four experiments (Brca1^CC/CC MEFs; RTx-161 1.25 uM): 86.23%
- survival relative to 0 uM, mean of the four experiments (Brca1^CC/CC MEFs; RTx-161 2.5 uM): 67.71%
- survival relative to 0 uM, mean of the four experiments (Brca1^CC/CC MEFs; RTx-161 5 uM): 56.39%
- survival relative to 0 uM, mean of the four experiments (Brca1^CC/CC MEFs; RTx-161 10 uM): 54.03%
- survival relative to 0 uM, mean of the four experiments (Brca1^CC/CC MEFs; RTx-161 20 uM): 47.47%
- selective killing of Brca1^cc/cc MEFs (Brca1^CC/CC MEFs; versus Brca1-WT MEFs): selective killing
